{
  "source": "patent US20120021992A1",
  "about": "“METHODS FOR IMPROVING NEUROLOGICAL OUTCOME AFTER NEURAL INJURY AND NEURODEGENERATIVE DISEASE” (Henry Ford Health System, priority 2009, published 2012)",
  "key": {"[1]": {"system": "stroke (middle cerebral artery occlusion (MCAo)) rats", "test": "Embolic middle cerebral artery occlusion (MCAo) stroke model", "type": "in vivo, rat", "procedure": "(§1) Effectiveness of treatment with thymosin β4 was tested in stroke (middle cerebral artery occlusion (MCAo)) rats and in experimental autoimmune encephalomyelitis (EAE) mice (a well-established in vivo model for multiple sclerosis). Both the stroke rats and the EAE mice were treated with 6 mg/kg thymosin β4 intraperitoneally (IP) in a volume of 0.3 mL twenty-four hours after stroke or after the day of immunization in the EAE model and then every three days (6 mg/kg IP) for four additional doses. An equal volume of saline was administered (IP) to a group of both stroke rats and EAE mice as a control. Bromodeoxyuridine (BrdU; 100 mg/kg) was administered (IP) daily for seven days, initiated 24 hours after MCAo to label proliferating cells. Behavioral tests (adhesive removable test and NSS (Neurological Severity Score)) were performed immediately before treatment and at days 1, 7, 14, 21, 28, 35, 42, 49, and 56 days after MCAo and up to 30 days in the EAE mouse model. All rats were sacrificed 56 days after MCAo; EAE mice were sacrificed at 30 days."}, "[2]": {"system": "experimental autoimmune encephalomyelitis (EAE) mice", "test": "Experimental autoimmune encephalomyelitis (EAE) model of multiple sclerosis", "type": "in vivo, mouse", "settings": "6 mg/kg IP, up to 30 days, versus control, p<0.01 (FIG. 9)", "procedure": "as §1"}, "[3]": {"settings": "embolic stroke rats, 6 mg/kg IP, versus saline control"}},
  "data": [
    {"substance": "thymosin β4", "values": [
      {"measurement": "number of myelinated axons", "setting": "[1]; after MCAo, Bielschowsky and Luxol Fast Blue staining, p<0.05 (FIG. 4)", "result": "increased"},
      {"measurement": "cellular proliferation (BrdU expression, number of BrdU immunoreactive cells)", "setting": "[1]; after MCAo, p<0.05 (FIG. 8)", "result": "also increased"},
      {"measurement": "number of oligodendrocyte progenitors and matured oligodendrocytes", "setting": "[1]; after MCAo, p<0.05 (FIGS. 5-7)", "result": "increased"},
      {"measurement": "functional outcome by behavioral tests (adhesive removal test, NSS)", "setting": "[1]; beginning at 21 days after stroke onset, 6 mg/kg IP, p<0.05 (FIG. 1-2)", "result": "Significant functional improvement"},
      {"measurement": "relative increase in BrdU expression in the striatum or myelinated region of the rat brain", "setting": "[1]; embolic stroke rats, 6 mg/kg IP from 24 h after MCAo, then every three days for four additional doses, versus saline control", "result": 42, "unit": "%"},
      {"measurement": "increase in CNP, a marker of mature oligodendrocytes", "setting": "[1]; [3]", "result": 11, "unit": "%"},
      {"measurement": "increase in NG-2, a marker of immature oligodendrocytes", "setting": "[1]; [3]", "result": 47, "unit": "%"},
      {"measurement": "functional neurological score", "setting": "[2]", "result": "robust improvement"}
    ]}
  ]
}
